# Assay results: patent EP0059645A1, “Method and kit for identification of beta-lactamases” (NATIONAL RESEARCH DEVELOPMENT CORPORATION, priority 1981, dated 1982)
# Like-named read-outs stand apart in the source and are kept apart here. Marks after values point to notes of the source that are not given here.
# Experiments:
# OXA-2 [1] = biological target: T1, OXA-2 (Escherichia coli, UniProt P0A1V9); test: Hydrolysis of nitrocefin by enzyme (Michaelis constant); details: read-out: Km (Nitrocefin); enzyme No. 6
# [2] = biological target: T2, Chromosomal, hyper-induced beta-lactamase enzyme (Escherichia coli, UniProt P00811); test: as above; details: read-out: Km (Nitrocefin); enzyme No. 9
# OXA-1 [3] = biological target: T3, OXA-1 (Escherichia coli, UniProt P13661); test: Cleavage of chromogenic substrate by enzyme (PADAC example); details: PADAC monitored at 570 nm; same enzyme preparation for nitrocefin
# [4] = tested on: O=C(Cc1cccs1)N[C@@H]1C(=O)N2C(C(=O)O)=C(C=Cc3ccc([N+](=O)[O-])cc3[N+](=O)[O-])CS[C@H]12; test: purified protein, by the assay type; details: pH 7.0; 37.0 °C
# [5] = tested on: O=C(Cc1cccs1)N[C@@H]1C(=O)N2C(C(=O)O)=C(C=Cc3ccc([N+](=O)[O-])cc3[N+](=O)[O-])CS[C@H]12; test: purified protein, by the assay type; details: pH 7.0; 37.0 °C; remark: listed apart in the source
# [6] = biological target: T4, Chromosomal, induced beta-lactamase enzyme (Pseudomonas aeruginosa, UniProt P24735); test: Competitive assay with nitrocefin (RSAI); format: biochemical, Ps.aerug. 1937E + ampicillin
# T4 construct: Normally, therefore, the beta-lactamase has to be extracted from the cells for the purpose of the present invention; endogenous in cells; host or cells: Pseudomonas aeruginosa 1937E grown with ampicillin
# [7] = biological target: T2, Chromosomal, hyper-induced beta-lactamase enzyme; test: Competitive assay with nitrocefin (RSAI); format: biochemical, E. coli SNU35; parameters: Normally, therefore, the beta-lactamase has to be extracted from the cells for the purpose of the present invention; endogenous in cells; host or cells: E. coli SNU 35 (artificially produced strain)
# OXA-3 = OXA-3 (Pseudomonas aeruginosa, UniProt Q51429); test: Competitive assay with nitrocefin (RSAI); format: biochemical, E. coli R57B; parameters: Normally, therefore, the beta-lactamase has to be extracted from the cells for the purpose of the present invention; endogenous in cells
# PSE-4 = PSE-4 (Pseudomonas aeruginosa, UniProt P16897); test: Competitive assay with nitrocefin (RSAI); format: biochemical, Ps.aerug. 1559E; parameters: Normally, therefore, the beta-lactamase has to be extracted from the cells for the purpose of the present invention; endogenous in cells
# SHV-1 = SHV-1 (Escherichia coli, UniProt P0AD63); test: Competitive assay with nitrocefin (RSAI); format: biochemical, E. coli 2008E; parameters: the beta-lactamase has to be extracted from the cells for the purpose of the present invention; made in house; host or cells: E. coli 2008E (crude cell extract)
# TEM-1 = TEM-1 (Escherichia coli, UniProt P62593); test: Competitive assay with nitrocefin (RSAI); format: biochemical, E. coli 2136E; parameters: the beta-lactamase has to be extracted from the cells for the purpose of the present invention; made in house; host or cells: E. coli 2136E (plasmid-bearing strain; crude cell extract)
# PSE-1 = PSE-1 (Pseudomonas aeruginosa, UniProt Q03170); test: Competitive assay with nitrocefin (RSAI); format: biochemical, Ps.aerug. 1937E; parameters: Normally, therefore, the beta-lactamase has to be extracted from the cells for the purpose of the present invention; endogenous in cells
# HMS-1 = test: Competitive assay with nitrocefin (RSAI); format: biochemical, E. coli 1946
# PSE-3 = test: Competitive assay with nitrocefin (RSAI); format: biochemical, Ps.aerug. 1920E
# K10317 = test: Competitive assay with nitrocefin (RSAI); format: biochemical, K.aerog. 10317
# PSE-2 = PSE-2 (Pseudomonas aeruginosa, UniProt P14489); test: Competitive assay with nitrocefin (RSAI); format: biochemical, Ps.aerug. 1973E; parameters: Normally, therefore, the beta-lactamase has to be extracted from the cells for the purpose of the present invention; endogenous in cells
# OXA-2 [8] = biological target: T1, OXA-2; test: Competitive assay with nitrocefin (RSAI); format: biochemical, E. coli R46; parameters: the beta-lactamase has to be extracted from the cells for the purpose of the present invention; made in house; host or cells: E. coli carrying R46 according to the earlier reading (crude cell extract)
# TEM-2 = TEM-2 (Escherichia coli, UniProt P62593, Q37K); test: Competitive assay with nitrocefin (RSAI); format: biochemical, E. coli 1725E
# [9] = biological target: T5, Chromosomal, constitutive beta-lactamase enzyme (Enterobacter cloacae, UniProt P05364); test: Competitive assay with nitrocefin (RSAI); format: biochemical, E. cloacae
# T5 construct: Normally, therefore, the beta-lactamase has to be extracted from the cells for the purpose of the present invention; endogenous in cells
# [10] = tested on: "unknown" (unidentified) beta-lactamase; test: Competitive assay with nitrocefin (RSAI) on an unidentified beta-lactamase; details: extract by the method of Example 6, assay as in Example 1; * = showed irreversible inhibition
# K17 = test: Competitive assay with nitrocefin (RSAI); format: biochemical, Klebsiella 17
# K1073 = test: Competitive assay with nitrocefin (RSAI); format: biochemical, Klebsiella 1073
# OXA-1 [11] = biological target: T3, OXA-1; test: Competitive assay with nitrocefin (RSAI); format: biochemical, E. coli 1527E; parameters: the beta-lactamase has to be extracted from the cells for the purpose of the present invention; made in house; host or cells: E. coli 1527E according to the earlier reading (crude cell extract)
molecule,measurement,setting,value
"O=C(Cc1cccs1)N[C@@H]1C(=O)N2C(C(=O)O)=C(C=Cc3ccc([N+](=O)[O-])cc3[N+](=O)[O-])CS[C@H]12 [Nitrocefin, 3-(2,4-dinitrostyryl)-(6R,7R)-7-(2-thienylacetamido)ceph-3-em-4-carboxylic acid]",Km,OXA-2 [1],< 9.68 µM
same,Km,[2],34.8 µM
same,cleavage of chromogenic substrate by the enzyme,OXA-1 [3],cleaved
(Escherichia coli),Km,[4],9 µg/mL
same,Km,[5],16 µg/mL
CO[C@@]1(NC(=O)C(C(=O)O)c2ccc(O)cc2)C(=O)N2C(C(=O)O)=C(CSc3nnnn3C)CO[C@@H]21 (some centres unmarked) [Moxalactam],RSAI,[6],0.006*
same,RSAI,[6]; listed as moxalactam,0.006
same,RSAI,[7],0.002*
same,RSAI,[7]; listed as moxalactam,0.002
same,RSAI,OXA-3,1*
same,RSAI,PSE-4,4.3
same,RSAI,SHV-1,280
same,RSAI,TEM-1,40*
same,RSAI,PSE-1,3.5
same,RSAI,HMS-1,0.3*
same,RSAI,PSE-3,7
same,RSAI,K10317,60*
same,RSAI,PSE-2,8.2
same,RSAI,OXA-2 [8],3*
same,RSAI,TEM-2,60*
same,RSAI,[9],0.0001*
same,RSAI,[9]; listed as moxalactam,0.0001
same,RSAI,[10],0.0001
same,RSAI,K17,3.5
same,RSAI,K1073,>80
same,RSAI,OXA-1 [11],4*
